Patent publication US8993282B2, “Carotenoid fermentation method” (JX Nippon Oil & Energy Corporation, priority 2008, dated 2015)

What was measured:
[1] = tested on: Paracoccus sp. strain L-25; assay: Glutamate supplementation, test tube culture, lycopene-producing mutant, carotenoid by HPLC; type: cell-based
Procedure: (§1) In the examples, carotenoids were quantified by high performance liquid chromatography (HPLC) as follows.
(§2) Two columns of Wakosil-II 5 SIL-100 (φ4.6×250 mm) (Wako Pure Chemical Industries, Ltd., Japan) were connected to each other for use as a column. Elution was performed by flowing an n-hexane-tetrahydrofuran-methanol mixed solution (40:20:1), which was a mobile phase, at a flow rate of 1.0 mL/minute at a constant temperature around room temperature. The measurement was performed as follows. Samples were each dissolved in tetrahydrofuran and then diluted 100-fold with the mobile phase. Each dilution was injected in a volume of 20 μL. The column eluate was detected at a wavelength of 470 nm. As a reference for quantification, astaxanthin (SIGMA, Cat. No. A9335) was used. The astaxanthin concentration of the reference solution was determined using the following equation after measuring the absorbance (A) of the reference solution at 477 nm and the area percentage % (B) of the astaxanthin peak at the time of HPLC analysis under the above conditions. Astaxanthin concentration (mg/L)=A/2150×B×100
The strain E-396 (FERM BP-4283) was mutated with N-methyl-N′-nitro-N-nitrosoguanidine to select mutant strain colonies with red-purple color. Carotenoid compounds in their culture solutions were further analyzed by high performance liquid chromatography to select a strain L-25 specifically producing lycopene.
(§3) A medium of the following composition (sucrose 30 g/L, corn steep liquor 30 g/L, potassium dihydrogenphosphate 1.5 g/L, disodium hydrogenphosphate 12-hydrate 3.8 g/L, calcium chloride dihydrate 5.0 g/L, magnesium sulfate -hydrate 0.7 g/L, iron sulfate 7-hydrate 0.3 g/L, pH 7.2) was dispensed in 8 ml volumes into cotton-plugged test tubes having an inner diameter of 18 mm and sterilized in an autoclave at 121° C. for 15 minutes to prepare a test tube medium for seed culture.
Next, a medium of the following composition (glucose 30 g/L, filtered corn steep liquor 5 g/L, ammonium sulfate 1.5 g/L, potassium dihydrogenphosphate 1.5 g/L, disodium hydrogenphosphate 12-hydrate 3.8 g/L, calcium chloride dihydrate 5.0 g/L, magnesium sulfate 7-hydrate 0.7 g/L, iron sulfate 7-hydrate 0.6 g/L, ester-based defoaming agent 0.2 g/L) was dispensed in 8 ml volumes into cotton-plugged test tubes having an inner diameter of 18 mm (2 tubes in total). One of the test tubes was supplemented with monosodium L-glutamate monohydrate to 30 mmol/L, while the other was supplemented with nothing as a control. Finally, the mediums in the tubes were adjusted to pH 7.1 with aqueous ammonia and then sterilized in an autoclave at 121° C. for 20 minutes.
The Paracoccus sp. strain L-25 selected above was inoculated, into the test tube medium for seed culture and then cultured with shaking at 28° C. for 2 days at 300 spin. The resulting culture solution was then inoculated in 0.1 ml volumes into the two test tube mediums and cultured with shaking at 28° C. for 3 days at 300 spm. Each culture solution was measured for its carotenoid concentration by HPLC.

[2] = tested on: Paracoccus carotinifaciens strain E-396 (FERM BP-4283); assay: Amino acid supplementation (20 amino acids), test tube culture, carotenoid by HPLC and growth by OD610; type: cell-based; conditions: amino acid at 1.0 g/L
Procedure: as §1, §2
as §3, with “sulfate 7-hydrate” for “sulfate -hydrate”
Next, a medium of the following composition (glucose 30 g/L, filtered corn steep liquor 5 g/L, ammonium sulfate 1.5 g/L, potassium dihydrogenphosphate 1.5 g/L, disodium hydrogenphosphate 12-hydrate 3.8 g/L, calcium chloride dihydrate 5.0 g/L, magnesium sulfate 7-hydrate 0.7 g/L, iron sulfate 7-hydrate 0.6 g/L, ester-based defoaming agent 0.2 g/L) was dispensed in 8 ml volumes into cotton-plugged test tubes having an inner diameter of 18 mm (21 tubes in total).
The mediums in these test tubes were supplemented with 20 amino acids, glycine, alanine, valine, leucine, isoleucine, serine, threonine, aspartic acid, glutamic acid, asparagine, glutamine, lysine, arginine, cysteine, methionine, phenylalanine, tyrosine, tryptophan, histidine and proline, respectively, at 1.0 g/L. One of the tubes was supplemented with no amino acid as a control. Finally, the mediums in the tubes were adjusted to pH 7.1 with aqueous sodium hydroxide or aqueous sulfuric acid and then sterilized in an autoclave at 121° C. for 20 minutes.
Paracoccus carotinifaciens strain E-396 (FERM BP-4283) was inoculated into the test tube medium for seed culture and then cultured with shaking at 28° C. for 2 days at 300 spm. The resulting culture solution was then inoculated in 0.1 ml volumes into the 21 test tube media, respectively, and cultured with shaking at 28° C. for 4 days at 300 spm.
Each culture solution was measured for its carotenoid concentration by HPLC and microbial cell growth was determined by OD610 (absorbance at 610 nm).

[3] = Glutamic acid concentration 30 mmol/L, 28° C. for 3 days
[4] = culture solution, 28° C. for 4 days

`N[C@@H](CCC(=O)O)C(=O)O` [Glutamic acid, glutamic acid] was tested, and the “produced carotenoid concentration compared to the sample without glutamic acid” value ([1]; 30 mmol/L) was “higher produced carotenoid concentration”, the Adonixanthin [1, 3] was 0.3 mg/L and the Astaxanthin [1, 3] was 0.3 mg/L. For the same molecule, the Lycopene [1, 3] was 19.6 mg/L, the “Total carotenoid” value [1, 3] was 20.2 mg/L and the “effect on the production of carotenoid pigments” value ([2]; versus tube with no amino acid) was “stimulatory effect”. It also gave an Astaxanthin [2, 4] of 10.7 mg/L, a Total carotenoid [2, 4] of 28.2 mg/L and an OD610 ([2]; microbial cell growth, absorbance at 610 nm, 28° C. for 4 days) of 17.
